Entries after “also recorded” stand apart in the source; their conditions may differ.
Experiments:
[1] = test system: GFAP; assay: GFAP expression in mouse spinal cord dorsal horn; format: in vivo; conditions: dorsal horn upper laminae, day 12, 10 mg/kg i.p. daily
Description: With these in vivo data collected, further experiments were performed in the transgenic mice to more clearly define the effects of propentofylline treatment on GLT-1 and GLAST in the spinal cord. As discussed above, following in vivo testing, mice were transcardially perfused and tissue was fixed with paraformaldehyde. Lumbar spinal cord sections were identified and post-fixed in paraformaldehyde. After one week in sucrose to prevent freeze fracture, spinal cord segments were frozen in dry ice, mounted and prepared with cryostat sectioning. Sections were then subjected to immunohistochemical analysis. […] In order to quantitate the relative number of eGFP (marker for GLT-1) or DsRed (marker for GLAST) puncta in each spinal cord dorsal horn, images using a fluorescence microscope were taken with a Q-Fire cooled camera (397 ms exposure). […] An observer blind to the treatment groups was used to count the relative number of GLT-1 or GLAST positive puncta in the ipsilateral (injured) dorsal horn versus the contralateral (non-injured) dorsal horn. […]
As described previously with rats, mice were transcardially perfused with 0.1 M PBS (phosphate-buffered saline), pH 7.4, followed by 4%-paraformaldehyde in PBS on day 12 post-L5 spinal nerve transection. […] The sections were examined with a fluorescence microscope, and images were captured with a Q-Fire cooled camera. […]

[2] = test system: cAMP; assay: cAMP levels in treated astrocytes, radio-receptor competition assay; format: cell-based, rat; conditions: days 3 and 7
Description: Subsequently, cells were harvested and boiled for 3 minutes followed by high-speed (8,000×g) centrifugation. Fifty microliters of the resultant supernatant (total of 300 μl) was used to determine cAMP levels in the competition assay. cAMP levels were measured using a radio-receptor competition assay. In brief, [^3H] cAMP was used in competition for a cAMP binding protein (PKA) against known concentrations of non-radiolabeled cAMP, followed by determination of the unknowns. The reaction was allowed to proceed for 2 hours at 4° C. Charcoal was used to remove excess unbound cAMP. Finally, samples were counted in 5 ml Liquiscint™ (National Diagnostics, Atlanta, Ga.).

[3] = test system: GLT-1 mRNA; assay: Real Time RT-PCR of ipsilateral lumbar spinal cord, GLT-1 mRNA; format: in vivo, rat; conditions: daily intrathecal
Description: Tissue was collected from 4-5 rats/group on postoperative days 4 or 12. In order to obtain both mRNA and protein from the same tissue sample, the L5 region of the spinal cord (ipsilateral to the injury), was isolated and placed in PBS supplemented with protease inhibitor cocktail (1:1000, Sigma Chemical Co., St. Louis, Mo.) and RNase inhibitor (0.75 U/μL Ambion, Austin, Tex.). Samples were sonicated in five one-second bursts at half-maximal power, centrifuged at 6500 rpm for 15 minutes at 4° C. Protein-containing supernatants were collected and stored at −80° C. until further processing by Western blot analysis. […]
Real time RT-PCR reactions were carried out in a total reaction volume of 25 μL containing a final concentration of 1.5 U Platinum Taq DNA polymerase (Invitrogen Corporation, Carlsbad, Calif.); 20 mM Tris HCl (pH 8.4); 50 mM KCl; 3 mM MgCl2; 200 μM dGTP, dCTP, and dATP; 400 μM dUTP and 1 U of UDG (uracyl DNA glycosylase); 900 nM of forward and reverse primers; 300 nM Taqman probe; and 5 μL of a 10-fold dilution of cDNA (50 ng) from the RT step. The iCycler™ Multicolor Real-Time PCR detection system (Bio-Rad, Hercules, Calif.) was used to quantify PCR product. […] The relative fold change from control was then expressed by calculation of 2^−ΔΔC^T for each sample and the results are expressed as the group mean fold change±SEM.

[4] = test system: astrocytic activation; conditions: DeLeo et al. 1987; cited from earlier work
[5] = test system: L5 spinal nerve transection; conditions: systemically or intrathecally administered; Sweitzer et al. 2001; cited from earlier work

## CCCn1cnc2c1c(=O)n(CCCCC(C)=O)c(=O)n2C [propentofylline]
[1]
  injury-induced GFAP expression: suppressed injury-induced GFAP expression
[2]
  relative cAMP/db-cAMP levels: did not lead to elevation in cAMP at 3 or 7 days; also recorded: did not enhance cAMP activity
[3]; day 4 post-transection
  GLT-1 mRNA in lumbar spinal cord: enhanced; also recorded: significantly increased levels of GLT-1 mRNA
[3]; day 12 post-transection
  GLT-1 mRNA in lumbar spinal cord: enhanced; also recorded: significantly increased levels of GLT-1 mRNA
[4]
  astrocytic activation: attenuate astrocytic activation
[5]
  mechanical allodynia induced by L5 spinal nerve transection: exhibits anti-allodynic properties; also recorded: attenuated mechanical allodynia

— US20090227606A1, “Methods for Preventing or Treating Acute and Chronic Pain” (priority 2006, published 2009)
